Laboratory results taken from patent US20020151734A1, “12-HETrE analogs and methods of use thereof” (priority 2001, published 2002).
*1 amine or outer side, *2 acyl side, *3 side chain or, on linkers, in order; H or OH if unused. Where a SMILES comes first, the peptide text is derived from it. Bridges are numbered along the chain shown (N, C = ends). Roman numbers before positions name the chains, in order. [ ]: non-standard residue; d: D form. Actinocin(9to1) = Cc1c2oc3c(C)ccc(C(=O)[*:1])c3nc-2c(C(=O)[*:2])c(N)c1=O; NMeV = CN[C@H](C(=O)O)C(C)C; Sar = CNCC(=O)O

How the values were obtained:
RLME cells = experiment: Inhibition of [^3H]12(R)-HETrE binding to RLME cells; details: analog 1 μM; for % Inhibition of [^3H]12(R)-HETrE binding: [^3H]12(R)-HETrE at 10 nM, RLME cells; for Result (agonist or antagonist): classed from % inhibition of [^3H]12(R)-HETrE binding
Procedure: Alternatively, the antagonistic or agonistic activity of 12-HETrE analogs may be measured by determining the percentage of inhibition of [^3H]12(R)-HETrE binding at 10 nM to RLME cells. Generally, inhibition of [^3H]12(R)-HETrE binding greater than 50% is indicative of agonists and inhibition lower than 50% is indicative of antagonists.

VEGF mRNA = VEGF mRNA levels in microvessel endothelial (RLMVE) cells by slot blot analysis; assay type: cell-based; details: for effect on 12(R)-HETrE-induced VEGF mRNA/expression: co-incubation with 12(R)-HETrE
Procedure: The antagonistic or agonistic activity of 12-HETrE analogs may be measured by measuring increases in vascular cadothelial growth factor (VEGF) mRNA following incubation of microvessel endothelial cells (RLMVE cells) with 12(R)-HETrE and other compounds followed by slot blot analysis, as described in the Examples. […] In this way the 12-HETrE analogs 8-(R) and 8-(S) were determined to be 12(R)-HETrE agonists.
12(R)-HETrE increased VEGF mRNA levels in a time-dependent manner. A 5-fold increase over the control levels was observed 45 min after addition of 12(R)-HETrE. These levels gradually declined to the control levels by 48 h. […] 12(R)-HETrE increased VEGF mRNA in a concentration-dependent manner with 0.1 nM having the maximal effect.
Human VEGF cDNA was used as a probe for slot blot analysis to measure increases in VEGF mRNA following incubation of RLMVE cells with 12(R)-HETrE and 12-HETrE analogs. To measure agonistic activity compounds were added to the incubation medium at concentration of 0.1, 1, and 10 nM and their effect on VEGF mRNA levels after 45 min incubation was measured in comparison to that of 12(R)-HETrE at the same concentration. To measure antagonistic activity, compounds at the above concentrations were added with 0.1 nM 12(R)-HETrE and 45 min later RNA extracted samples were processed for slot blot analysis.

Row | Structure (SMILES) | % Inhibition of [^3H]12(R)-HETrE binding (RLME cells) [%] | Result (agonist or antagonist) (RLME cells) | other results
1 | CCCCC/C=C\C[C@H](O)CC/C=C\C/C=C\CCCC(=O)NS(C)(=O)=O [1-a-(R), N-(Methylsulfonyl)-12(R)-hydroxyeicosa-5(Z),8(Z),14(Z)-trienamide] | 62.6 | Agonist (inhibition of [^3H]12(R)-HETrE binding greater than 50% is indicative of agonists) | –
2 | CCCCC/C=C\C[C@@H](O)CC/C=C\C/C=C\CCCC(=O)NS(C)(=O)=O [1-a-(S), N-(Methylsulfonyl)-12(S)-hydroxyeicosa-5(Z),8(Z),14(Z)-trienamide] | 33.3 | Antagonist (inhibition lower than 50% is indicative of antagonists) | increase in VEGF mRNA (densitometry) (VEGF mRNA; 1 nM, 45 min incubation): 5 fold; agonistic activity by VEGF mRNA increase (VEGF mRNA; slot blot analysis): significant agonistic activity
3 | CCCCC/C=C\C[C@@H](CC/C=C\C/C=C\CCCC(=O)O)OC [2-(R), 12(R)-Methoxyeicosa-5(Z),8(Z),14(Z)-trienoic acid] | 38.6 | Antagonist (inhibition lower than 50% is indicative of antagonists) | –
4 | CCCCC/C=C\C[C@H](CC/C=C\C/C=C\CCCC(=O)O)OC [2-(S), 12(S)-Methoxyeicosa-5(Z),8(Z),14(Z)-trienoic acid] | 34.2 | Antagonist (inhibition lower than 50% is indicative of antagonists) | –
5 | CCCCC/C=C\C[C@H](O)CC/C=C\CC#CCCCC(=O)O [3-(R), 12(R)-hydroxyeicosa-8(Z),14(Z)-dien-5-ynoic acid] | 58.1 | Agonist (inhibition of [^3H]12(R)-HETrE binding greater than 50% is indicative of agonists) | –
6 | CCCCC/C=C\C[C@@H](O)CC/C=C\CC#CCCCC(=O)O [3-(S), 12(S)-Hydroxyeicosa-8(Z),14(Z)-dien-5-ynoic acid] | 23.6 | Antagonist (inhibition lower than 50% is indicative of antagonists) | –
7 | CCCCC/C=C\C[C@H](O)CC/C=C\C/C=C\COCC(=O)O [4-a-(R), (9(R)-Hydroxyheptadeca-2(Z),5(Z),11(Z)-trienyloxy)acetic acid] | 48.0 | Antagonist (inhibition lower than 50% is indicative of antagonists) | –
8 | CCCCC/C=C\C[C@@H](O)CC/C=C\C/C=C\COCC(=O)O [4-a-(S)] | 24.3 | Antagonist (inhibition lower than 50% is indicative of antagonists) | –
9 | CCCCC/C=C\C[C@H](O)CC/C=C\CCCCCCC(=O)O [5-(R), 12(R)-Hydroxyeicosa-8(Z),14(Z)-dienoic acid] | 92.4 | Agonist (inhibition of [^3H]12(R)-HETrE binding greater than 50% is indicative of agonists) | –
10 | CCCCC/C=C\C[C@@H](O)CC/C=C\CCCCCCC(=O)O [5-(S), 12(S)-Hydroxyeicosa-8(Z),14(Z)-dienoic acid] | 54.5 | Agonist (inhibition of [^3H]12(R)-HETrE binding greater than 50% is indicative of agonists) | –
11 | CCCCCCCC[C@@H](O)CC/C=C\C/C=C\CCCC(=O)O [6-(R), 12(R)-Hydroxyeicosa-5(Z),8(Z)-dienoic acid] | 87.2 | Agonist (inhibition of [^3H]12(R)-HETrE binding greater than 50% is indicative of agonists) | –
12 | CCCCCCCC[C@H](O)CC/C=C\C/C=C\CCCC(=O)O [6-(S), 12(S)-Hydroxyeicosa-5(Z),8(Z)-dienoic acid] | 73.0 | Agonist (inhibition of [^3H]12(R)-HETrE binding greater than 50% is indicative of agonists) | –
13 | CCCCC/C=C\C[C@H](O)CCCCC/C=C\CCCC(=O)O [7-(R), 12(R)-Hydroxy-eicosa-5(Z),14(Z)-dienoic acid] | 88.7 | Agonist (inhibition of [^3H]12(R)-HETrE binding greater than 50% is indicative of agonists) | –
14 | CCCCC/C=C\C[C@@H](O)CCCCC/C=C\CCCC(=O)O [7-(S), 12(S)-Hydroxyeicosa-5,(Z)14(Z)-dienoic acid] | 69.5 | Agonist (inhibition of [^3H]12(R)-HETrE binding greater than 50% is indicative of agonists) | –
15 | CCCCCC=CC[C@H](O)CCC=CCC=CCCCC(=O)O [12(R)-HETrE, 12(R)-hydroxy-5,8,14-eicosatrienoic acid] | 69.8 | – | time by which VEGF mRNA levels declined to the control levels (VEGF mRNA; 0.1 nM): ≤ 48 h; increase in VEGF mRNA over the control levels (VEGF mRNA; 0.1 nM, 45 min after addition): 5 fold; concentration having the maximal effect on VEGF mRNA (VEGF mRNA; concentration-dependent increase): 0.1 nM
16 | CCCCC/C=C\C[C@@H](O)CC/C=C\C/C=C\CCCC(=O)O [12(S)-HETrE, 12(S)-(5Z,8Z,14Z)-12-hydroxyeicosa-5,8,14-trienoic acid, reference compound] | 62.4 | Agonist (inhibition of [^3H]12(R)-HETrE binding greater than 50% is indicative of agonists) | –
17 | Cc1c2oc3c(C)ccc(C(=O)N[C@@H]4C(=O)N[C@H](C(C)C)C(=O)N5CCC[C@H]5C(=O)N(C)CC(=O)N(C)[C@@H](C(C)C)C(=O)O[C@@H]4C)c3nc-2c(C(=O)N[C@@H]2C(=O)N[C@H](C(C)C)C(=O)N3CCC[C@H]3C(=O)N(C)CC(=O)N(C)[C@@H](C(C)C)C(=O)O[C@@H]2C)c(N)c1=O [actinomycin D] (I: T[dV]P[Sar][NMeV] / II: T[dV]P[Sar][NMeV]; ester I:1-I:C, II:1-II:C; linker I:N-II:N via Actinocin(9to1)) | – | – | effect on 12(R)-HETrE-induced VEGF mRNA/expression (VEGF mRNA): abolished
18 | C[C@@H]1C[C@@H]([C@H](O)CC2CC(=O)NC(=O)C2)C(=O)[C@@H](C)C1 [cycloheximide] | – | – | effect on 12(R)-HETrE-induced VEGF mRNA/expression (VEGF mRNA): did not affect
